From patent US11840686B2, “Modulation of prekallikrein (PKK) expression” (Ionis Pharmaceuticals, Inc., priority 2013, dated 2023)
Strand notation (5' to 3'): a small letter for the sugar, then the base; units joined by * are phosphorothioate-linked, units joined directly phosphodiester-linked; [ ] holds rarer units or linkages, { } end groups; capitals alone tell only the bases. e = 2'-O-(2-methoxyethyl) (MOE); [5mC] = 5-methylcytosine; d = 2'-deoxy (DNA)

Tested on: human PKK mRNA
Experiment: Antisense inhibition of human PKK mRNA in HepaRG cells, 3,000 nM (Example 1)
Assay type: cell-based
Details: Table 1; PKK mRNA, HepaRG cells, 3,000 nM, electroporation, ~24 h, relative to untreated control cells
Method in brief: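 Values give percent PKK mRNA reduction relative to untreated controls, normalised to RIBOGREEN total RNA. mRNA was quantified by real-time PCR (RTS3454) about 24 h after electroporation. Each 20-mer MOE gapmer was delivered at 3,000 nM into 20,000 HepaRG cells per well.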

Row | Substance | % inhibition
1 | 530962 (antisense e[5mC]*e[5mC]*eT*eT*eT*dT*dT*dT*dG*dG*d[5mC]*dA*dT*dT*d[5mC]*eT*eT*e[5mC]*eA*eA) [compound 530962] | 64%
2 | 530964 (antisense e[5mC]*eT*eT*e[5mC]*eA*dG*dT*dG*dA*dG*dA*dA*dT*d[5mC]*d[5mC]*eA*eG*eA*eT*eT) [compound 530964] | 44%
3 | 531000 (eA*eA*eG*eA*eA*dA*d[5mC]*dA*d[5mC]*dT*dT*dA*d[5mC]*dA*d[5mC]*eT*eT*e[5mC]*eT*e[5mC]; antisense) [compound 531000] | 1%
4 | 530996 (eT*eG*eA*e[5mC]*eA*dG*d[5mC]*dG*dA*dA*dT*d[5mC]*dA*dT*d[5mC]*eT*eT*eT*eG*eT; antisense) [compound 530996] | 51%
5 | 530938 (antisense eG*eG*eA*eA*eA*dT*dG*dA*dA*dA*dT*dA*dA*dG*dT*eT*eG*e[5mC]*eT*eT) [compound 530938] | 11%
6 | 530934 (antisense e[5mC]*eT*eT*e[5mC]*eT*dT*dG*dG*dA*dG*dG*dT*dG*dA*dG*eT*e[5mC]*eT*e[5mC]*eT) [compound 530934] | 54%
7 | 530963 (antisense eT*eG*eG*eT*eG*d[5mC]*dA*d[5mC]*d[5mC]*dT*dT*dT*dT*dT*dT*eG*eG*e[5mC]*eA*eT) [compound 530963] | 78%
8 | 530960 (antisense eA*eT*eT*e[5mC]*eT*dT*d[5mC]*dA*dA*d[5mC]*dA*d[5mC]*dT*dG*d[5mC]*eT*eA*eA*e[5mC]*e[5mC]) [compound 530960] | 58%
9 | 530997 (eA*eA*eA*eA*e[5mC]*dT*dG*dA*d[5mC]*dA*dG*d[5mC]*dG*dA*dA*eT*e[5mC]*eA*eT*e[5mC]; antisense) [compound 530997] | 39%
10 | 530956 (antisense eA*e[5mC]*eA*e[5mC]*eT*dA*dT*d[5mC]*dT*dT*dT*d[5mC]*dA*dA*dG*eA*eA*eG*e[5mC]*eA) [compound 530956] | 57%
11 | 530975 (antisense eG*eT*eG*eT*eT*dT*dT*d[5mC]*dT*dT*dG*dA*dG*dG*dA*eG*eT*eA*eG*eA) [compound 530975] | 41%
12 | 530979 (antisense eG*eG*eT*eT*eA*dA*dA*dA*dG*dG*d[5mC]*dT*dA*dT*dA*eT*e[5mC]*e[5mC]*eA*eG) [compound 530979] | 35%
13 | 530995 (eA*eG*eT*e[5mC]*eT*d[5mC]*dT*dT*dG*dG*d[5mC]*dA*dA*dA*d[5mC]*eA*eT*eT*e[5mC]*eA; antisense) [compound 530995] | 49%
14 | 530946 (antisense eT*eA*e[5mC]*eA*eT*d[5mC]*d[5mC]*d[5mC]*d[5mC]*dA*d[5mC]*d[5mC]*dT*d[5mC]*dT*eG*eA*eA*eG*eA) [compound 530946] | 0%
15 | 530977 (antisense eT*e[5mC]*e[5mC]*eA*eG*dA*dT*dA*dT*dG*dG*dT*dG*dT*dT*eT*eT*e[5mC]*eT*eT) [compound 530977] | 55%

Same assay, conditions: Table 2; PKK mRNA, HepaRG cells, 3,000 nM, electroporation, ~24 h, relative to untreated control cells

Row | Substance | % inhibition
16 | 531012 (eT*e[5mC]*eT*e[5mC]*e[5mC]*d[5mC]*d[5mC]*dA*dA*dG*dA*dA*dG*dA*dG*eT*eT*eT*eG*eT; antisense) [compound 531012] | 48%
17 | 531025 (eT*e[5mC]*eT*e[5mC]*eT*dT*dT*dT*dA*dT*dT*dT*dG*dT*dG*eA*eG*eA*eA*eA; antisense) [compound 531025] | 34%
18 | 531015 (eT*eA*eT*eG*eA*dG*dT*dG*dA*d[5mC]*d[5mC]*d[5mC]*dT*d[5mC]*d[5mC]*eA*e[5mC]*eA*e[5mC]*eA; antisense) [compound 531015] | 52%
19 | 531020 (eA*eA*eG*e[5mC]*e[5mC]*d[5mC]*dA*dT*d[5mC]*dA*dA*dA*dG*d[5mC]*dA*eG*eT*eG*eG*eG; antisense) [compound 531020] | 0%
20 | 531042 (antisense eT*eT*eA*e[5mC]*e[5mC]*dA*dA*dA*dG*dG*dA*dA*dT*dA*dT*eT*eT*eA*e[5mC]*e[5mC]) [compound 531042] | 11%
21 | 531052 (antisense eA*eG*eA*e[5mC]*e[5mC]*dA*dT*d[5mC]*d[5mC]*dG*dT*dT*dG*dG*dG*eT*eT*eA*eT*eT) [compound 531052] | 60%
22 | 531046 (antisense eG*eA*eT*eA*eT*d[5mC]*dT*dT*dT*dT*d[5mC]*dT*dG*dG*d[5mC]*eA*eT*eT*e[5mC]*eT) [compound 531046] | 54%
23 | 531079 (eT*e[5mC]*e[5mC]*eT*e[5mC]*dA*dG*d[5mC]*dA*dG*d[5mC]*dT*d[5mC]*dT*dG*eA*eG*eT*eG*e[5mC]; antisense) [compound 531079] | 58%
24 | 531063 (antisense eG*eA*e[5mC]*eA*e[5mC]*d[5mC]*dA*dG*dG*dT*dT*dG*d[5mC]*dT*d[5mC]*e[5mC]*e[5mC]*eT*eG*e[5mC]) [compound 531063] | 51%
25 | 531043 (antisense eA*eT*eT*eT*eG*dT*dT*dA*d[5mC]*d[5mC]*dA*dA*dA*dG*dG*eA*eA*eT*eA*eT) [compound 531043] | 27%

Same assay, conditions: Table 3; HepaRG cells, electroporation with 3,000 nM antisense oligonucleotide, approx. 24 hours; PKK mRNA by RT-PCR (RTS3454), relative to untreated control cells

Row | Substance | % inhibition
26 | 531154 (antisense eA*eT*eG*eA*eA*dG*dT*dA*dA*dG*dA*dT*dG*d[5mC]*dT*eT*eA*eA*eA*eA) [compound 531154] | 16%
27 | 531158 (antisense eA*e[5mC]*e[5mC]*eT*eT*dA*d[5mC]*dA*dA*dG*d[5mC]*dA*dT*d[5mC]*dT*eT*eT*eT*e[5mC]*e[5mC]) [compound 531158] | 41%
28 | 531104 (eA*e[5mC]*eT*eT*eG*dA*d[5mC]*d[5mC]*dT*dT*dA*d[5mC]*dT*dG*dT*eT*eT*eT*eA*eG; antisense) [compound 531104] | 20%
29 | 531111 (antisense e[5mC]*eT*eT*e[5mC]*eT*d[5mC]*d[5mC]*dT*dG*dG*d[5mC]*dT*d[5mC]*dA*dG*eA*eA*eG*e[5mC]*eT) [compound 531111] | 68%
30 | 531153 (antisense e[5mC]*eT*eA*eG*eA*dA*dG*d[5mC]*dA*dA*dT*dA*dT*dT*dT*eA*eA*eA*eG*e[5mC]) [compound 531153] | 0%
31 | 531094 (eG*eA*eA*eT*eG*dT*d[5mC]*dA*dG*dG*d[5mC]*d[5mC]*dT*d[5mC]*dT*eG*eG*eG*e[5mC]*e[5mC]; antisense) [compound 531094] | 48%
32 | 531088 (eG*eG*eT*eT*eT*dT*dG*dT*dT*dT*dG*dT*dA*dA*dA*eA*eT*eT*eA*eG; antisense) [compound 531088] | 27%
33 | 531155 (antisense e[5mC]*eT*eT*e[5mC]*eT*dT*dG*dT*d[5mC]*dT*d[5mC]*dA*dG*dA*dT*eT*eA*e[5mC]*e[5mC]*eA) [compound 531155] | 79%
34 | 531101 (eA*eT*eG*eT*eA*dA*dG*dT*dT*dA*d[5mC]*dA*dA*dG*d[5mC]*e[5mC]*eA*e[5mC]*eT*eA; antisense) [compound 531101] | 37%

Same assay, conditions: Table 4; HepaRG cells, electroporation with 3,000 nM antisense oligonucleotide, approx. 24 hours; PKK mRNA by RT-PCR (RTS3454), relative to untreated control cells

Row | Substance | % inhibition
35 | 531216 (eA*eA*eA*e[5mC]*eA*d[5mC]*dA*dG*dG*dA*dA*dT*dT*dT*dG*e[5mC]*eA*eG*eA*e[5mC]; antisense) [compound 531216] | 33%
36 | 531204 (e[5mC]*eT*eT*eG*eT*dA*dG*dT*d[5mC]*dT*dG*d[5mC]*dA*d[5mC]*dT*eT*eA*eA*eT*eG; antisense) [compound 531204] | 60%
37 | 531237 (eG*eT*eG*eG*eA*dA*dT*dG*dT*d[5mC]*dA*dT*dG*dG*d[5mC]*eA*eA*eT*eT*eT; antisense) [compound 531237] | 56%
38 | 531181 (antisense eG*eG*eT*eT*eG*dA*dG*dG*dG*dA*d[5mC]*dA*dG*dA*d[5mC]*eA*e[5mC]*eA*eG*eG) [compound 531181] | 36%
39 | 531170 (antisense eG*e[5mC]*e[5mC]*eT*eG*dG*d[5mC]*d[5mC]*d[5mC]*d[5mC]*d[5mC]*dA*dA*dG*dA*e[5mC]*eT*e[5mC]*eT*eA) [compound 531170] | 54%
40 | 531176 (antisense eT*eT*eA*eT*eG*dA*dA*dA*d[5mC]*d[5mC]*dT*d[5mC]*dT*dT*dG*eA*eT*eT*eT*eG) [compound 531176] | 0%
41 | 531188 (eG*eT*eT*eA*eA*dA*dA*d[5mC]*dA*dA*d[5mC]*dT*dA*dG*dA*eA*eG*e[5mC]*e[5mC]*eA; antisense) [compound 531188] | 67%
42 | 531222 (eG*eG*e[5mC]*eA*eA*dG*d[5mC]*dT*dG*dT*dA*d[5mC]*dA*dA*dG*eA*eA*eA*eA*eA; antisense) [compound 531222] | 19%
